Test results taken from ChEMBL document CHEMBL4382234, “Fluoroquinolone-isatin hybrids and their biological activities” (Eur J Med Chem, 2019).
Values after ≈ are worked out from the molar mass of the structure shown.

Key:
Format in all cases: functional
[1] = test system: Mycobacterium tuberculosis; assay: Antimycobacterial activity against multidrug-resistant Mycobacterium tuberculosis 09710 by rapid direct susceptibility test
[2] = test system: Mycobacterium tuberculosis; assay: Antimycobacterial activity against multidrug-resistant Mycobacterium tuberculosis after 3 to 7 days by rapid direct susceptibility test
[3] = test system: Mycobacterium tuberculosis; assay: Antimycobacterial activity against isoniazid/rifampicin/ethambutol-resistant Mycobacterium tuberculosis after 3 to 7 days by rapid direct susceptibility test
[4] = test system: Mycobacterium tuberculosis; assay: Potency index, ratio of gatifloxacin MIC to test compound MIC for multidrug-resistant Mycobacterium tuberculosis
[5] = test system: Mycobacterium tuberculosis; assay: Potency index, ratio of rifampicin MIC to test compound MIC for multidrug-resistant Mycobacterium tuberculosis
[6] = test system: Mycobacterium tuberculosis; assay: Potency index, ratio of isoniazid MIC to test compound MIC for multidrug-resistant Mycobacterium tuberculosis

| Compound | MIC [1] | MIC [2] | also measured |
| --- | --- | --- | --- |
| CCO/N=C1\C(=O)N(CCN2CCC[C@H]3CN(c4c(F)cc5c(=O)c(C(=O)O)cn(C6CC6)c5c4OC)C[C@H]32)c2ccc(F)cc21 | 0.39 to 16 µg/mL (≈ 0.614 to 25.2 µM) | – | – |
| COc1c(N2C[C@@H]3CCCN(CN4C(=O)/C(=N\NC(N)=S)c5cc(F)ccc54)[C@@H]3C2)c(F)cc2c(=O)c(C(=O)O)cn(C3CC3)c12 | 0.39 to 16 µg/mL (≈ 0.598 to 24.6 µM) | – | – |
| CO/N=C1\C(=O)N(CN2CCC[C@H]3CN(c4c(F)cc5c(=O)c(C(=O)O)cn(C6CC6)c5c4OC)C[C@H]32)c2ccc(F)cc21 | 0.39 to 16 µg/mL (≈ 0.642 to 26.3 µM) | – | – |
| COc1c(N2C[C@@H]3CCCN(CCN4C(=O)/C(=N\NC(N)=O)c5ccccc54)[C@@H]3C2)c(F)cc2c(=O)c(C(=O)O)cn(C3CC3)c12 | 0.39 to 16 µg/mL (≈ 0.617 to 25.3 µM) | – | – |
| CO/N=C1/C(=O)N(CCn2cc(CN3CCC[C@H]4CN(c5c(F)cc6c(=O)c(C(=O)O)cn(C7CC7)c6c5OC)C[C@H]43)nn2)c2ccccc21 | – | 0.1 to 0.78 µg/mL (≈ 0.146 to 1.14 µM) | – |
| NC(=S)N/N=C1/C(=O)N(CCCN2CCN(c3cc4c(cc3F)c(=O)c(C(=O)O)cn4C3CC3)CC2)c2ccccc21 | – | – | MIC [3]: 0.1 to 64 µg/mL (≈ 0.169 to 108 µM) |
| CO/N=C1\C(=O)N(CCN2CCC[C@H]3CN(c4c(F)cc5c(=O)c(C(=O)O)cn(C6CC6)c5c4OC)C[C@H]32)c2cc(F)ccc21 | 0.39 to 16 µg/mL (≈ 0.627 to 25.7 µM) | – | – |
| CCO/N=C1/C(=O)N(CCn2cc(CN3CCC[C@H]4CN(c5c(F)cc6c(=O)c(C(=O)O)cn(C7CC7)c6c5OC)C[C@H]43)nn2)c2ccccc21 | – | 0.1 to 0.78 µg/mL (≈ 0.143 to 1.12 µM) | – |
| CCO/N=C1\C(=O)N(CCN2CCC[C@H]3CN(c4c(F)cc5c(=O)c(C(=O)O)cn(C6CC6)c5c4OC)C[C@H]32)c2ccccc21 | 0.39 to 16 µg/mL (≈ 0.631 to 25.9 µM) | – | – |
| COc1c(N2C[C@@H]3CCCN(Cc4cn(CCN5C(=O)/C(=N/NC(N)=O)c6ccccc65)nn4)[C@@H]3C2)c(F)cc2c(=O)c(C(=O)O)cn(C3CC3)c12 | – | 0.1 to 0.78 µg/mL (≈ 0.14 to 1.09 µM) | – |
| COc1c(N2C[C@@H]3CCCN(CN4C(=O)C(=O)c5cc(F)ccc54)[C@@H]3C2)c(F)cc2c(=O)c(C(=O)O)cn(C3CC3)c12 | 0.39 to 16 µg/mL (≈ 0.674 to 27.7 µM) | – | – |
| COc1c(N2C[C@@H]3CCCN(CCN4C(=O)/C(=N\NC(N)=S)c5cc(F)ccc54)[C@@H]3C2)c(F)cc2c(=O)c(C(=O)O)cn(C3CC3)c12 | 0.39 to 16 µg/mL (≈ 0.586 to 24 µM) | – | – |
| COc1c(N2C[C@@H]3CCCN(Cc4cn(CCN5C(=O)C(=O)c6ccccc65)nn4)[C@@H]3C2)c(F)cc2c(=O)c(C(=O)O)cn(C3CC3)c12 | – | 0.1 to 0.78 µg/mL (≈ 0.153 to 1.19 µM) | – |
| O=C(O)c1cn(C2CC2)c2cc(N3CCN(CCCN4C(=O)/C(=N/O)c5ccccc54)CC3)c(F)cc2c1=O | – | – | MIC [3]: 0.1 to 64 µg/mL (≈ 0.187 to 120 µM) |
| CCO/N=C1\C(=O)N(CN2CCC[C@H]3CN(c4c(F)cc5c(=O)c(C(=O)O)cn(C6CC6)c5c4OC)C[C@H]32)c2ccc(F)cc21 | 0.39 to 16 µg/mL (≈ 0.627 to 25.7 µM) | – | – |
| COc1c(N2C[C@@H]3CCCN(CN4C(=O)/C(=N\NC(N)=O)c5cc(F)ccc54)[C@@H]3C2)c(F)cc2c(=O)c(C(=O)O)cn(C3CC3)c12 | 0.39 to 16 µg/mL (≈ 0.614 to 25.2 µM) | – | – |
| COc1c(N2C[C@@H]3CCCN(CCN4C(=O)/C(=N\NC(N)=O)c5cc(F)ccc54)[C@@H]3C2)c(F)cc2c(=O)c(C(=O)O)cn(C3CC3)c12 | 0.39 to 16 µg/mL (≈ 0.6 to 24.6 µM) | – | – |
| COc1c(N2C[C@@H]3CCCN(CCN4C(=O)C(=O)c5cc(F)ccc54)[C@@H]3C2)c(F)cc2c(=O)c(C(=O)O)cn(C3CC3)c12 | 0.39 to 16 µg/mL (≈ 0.658 to 27 µM) | – | – |
| COc1c(N2C[C@@H]3CCCN(CN4C(=O)/C(=N\O)c5ccccc54)[C@@H]3C2)c(F)cc2c(=O)c(C(=O)O)cn(C3CC3)c12 | 0.39 to 16 µg/mL (≈ 0.678 to 27.8 µM) | – | – |
| COc1c(N2C[C@@H]3CCCN(CN4C(=O)C(=O)c5ccccc54)[C@@H]3C2)c(F)cc2c(=O)c(C(=O)O)cn(C3CC3)c12 | 0.39 to 16 µg/mL (≈ 0.696 to 28.5 µM) | – | – |
| COc1c(N2C[C@@H]3CCCN(CCN4C(=O)/C(=N\NC(N)=S)c5ccccc54)[C@@H]3C2)c(F)cc2c(=O)c(C(=O)O)cn(C3CC3)c12 | 0.39 to 16 µg/mL (≈ 0.602 to 24.7 µM) | – | – |
| Cc1ccc2c(c1)/C(=N\NC(N)=O)C(=O)N2CCCN1CCN(c2cc3c(cc2F)c(=O)c(C(=O)O)cn3C2CC2)CC1 | – | – | MIC [3]: 0.1 to 64 µg/mL (≈ 0.17 to 109 µM) |
| COc1c(N2C[C@@H]3CCCN(Cc4cn(CCN5C(=O)/C(=N/O)c6ccccc65)nn4)[C@@H]3C2)c(F)cc2c(=O)c(C(=O)O)cn(C3CC3)c12 | – | 0.1 to 0.78 µg/mL (≈ 0.149 to 1.16 µM) | – |

| Compound | MIC [1] | MIC [2] | also measured |
| --- | --- | --- | --- |
| COc1c(N2C[C@@H]3CCCN(CCN4C(=O)C(=O)c5ccccc54)[C@@H]3C2)c(F)cc2c(=O)c(C(=O)O)cn(C3CC3)c12 | 0.39 to 16 µg/mL (≈ 0.679 to 27.8 µM) | – | – |
| COc1c(N2C[C@@H]3CCCN(Cc4cn(CCN5C(=O)C(=O)c6cc(Br)ccc65)nn4)[C@@H]3C2)c(F)cc2c(=O)c(C(=O)O)cn(C3CC3)c12 | – | 0.1 to 0.78 µg/mL (≈ 0.136 to 1.06 µM) | – |
| CO/N=C1\C(=O)N(CN2CCC[C@H]3CN(c4c(F)cc5c(=O)c(C(=O)O)cn(C6CC6)c5c4OC)C[C@H]32)c2ccccc21 | 0.39 to 16 µg/mL (≈ 0.661 to 27.1 µM) | – | – |
| COc1c(N2C[C@@H]3CCCN(CN4C(=O)/C(=N\NC(N)=S)c5ccccc54)[C@@H]3C2)c(F)cc2c(=O)c(C(=O)O)cn(C3CC3)c12 | 0.39 to 16 µg/mL (≈ 0.615 to 25.2 µM) | – | – |
| CO/N=C1/C(=O)N(CCn2cc(CN3CCC[C@H]4CN(c5c(F)cc6c(=O)c(C(=O)O)cn(C7CC7)c6c5OC)C[C@H]43)nn2)c2ccc(Br)cc21 | – | 0.1 to 0.78 µg/mL (≈ 0.131 to 1.02 µM) | – |
| CCO/N=C1/C(=O)N(CCn2cc(CN3CCC[C@H]4CN(c5c(F)cc6c(=O)c(C(=O)O)cn(C7CC7)c6c5OC)C[C@H]43)nn2)c2ccc(Br)cc21 | – | 0.1 to 0.78 µg/mL (≈ 0.129 to 1 µM) | – |
| Cc1ccc2c(c1)/C(=N\NC(N)=S)C(=O)N2CCCN1CCN(c2cc3c(cc2F)c(=O)c(C(=O)O)cn3C2CC2)CC1 | – | – | MIC [3]: 0.1 to 64 µg/mL (≈ 0.165 to 106 µM) |
| COc1c(N2C[C@@H]3CCCN(Cc4cn(CCN5C(=O)/C(=N/O)c6cc(Br)ccc65)nn4)[C@@H]3C2)c(F)cc2c(=O)c(C(=O)O)cn(C3CC3)c12 | – | 0.1 to 0.78 µg/mL (≈ 0.133 to 1.04 µM) | – |
| CO/N=C1\C(=O)N(CCN2CCC[C@H]3CN(c4c(F)cc5c(=O)c(C(=O)O)cn(C6CC6)c5c4OC)C[C@H]32)c2ccccc21 | 0.39 to 16 µg/mL (≈ 0.646 to 26.5 µM) | – | – |
| COc1c(N2C[C@@H]3CCCN(CCN4C(=O)/C(=N\O)c5cc(F)ccc54)[C@@H]3C2)c(F)cc2c(=O)c(C(=O)O)cn(C3CC3)c12 | 0.39 to 16 µg/mL (≈ 0.642 to 26.3 µM) | – | – |
| COc1c(N2C[C@@H]3CCCN(CN4C(=O)/C(=N\O)c5cc(F)ccc54)[C@@H]3C2)c(F)cc2c(=O)c(C(=O)O)cn(C3CC3)c12 | 0.39 to 16 µg/mL (≈ 0.657 to 27 µM) | – | – |
| CCO/N=C1\C(=O)N(CN2CCC[C@H]3CN(c4c(F)cc5c(=O)c(C(=O)O)cn(C6CC6)c5c4OC)C[C@H]32)c2ccccc21 | 0.39 to 16 µg/mL (≈ 0.646 to 26.5 µM) | – | – |
| Cc1ccc2c(c1)/C(=N\O)C(=O)N2CCCN1CCN(c2cc3c(cc2F)c(=O)c(C(=O)O)cn3C2CC2)CC1 | – | – | MIC [3]: 0.1 to 64 µg/mL (≈ 0.183 to 117 µM) |
| COc1c(N2C[C@@H]3CCCN(CCN4C(=O)/C(=N\O)c5ccccc54)[C@@H]3C2)c(F)cc2c(=O)c(C(=O)O)cn(C3CC3)c12 | 0.39 to 16 µg/mL (≈ 0.661 to 27.1 µM) | – | – |
| CO/N=C1/C(=O)N(CCCN2CCN(c3c(F)cc4c(=O)c(C(=O)O)cn(C5CC5)c4c3OC)CC2C)c2ccc(F)cc21 (centres undefined) | – | 0.25 µg/mL (≈ 0.41 µM) | Ratio [4]: >=4 - 512; Ratio [5]: >=4 - 512; Ratio [6]: >=4 - 512 |
| COc1c(N2C[C@@H]3CCCN(CN4C(=O)/C(=N\NC(N)=O)c5ccccc54)[C@@H]3C2)c(F)cc2c(=O)c(C(=O)O)cn(C3CC3)c12 | 0.39 to 16 µg/mL (≈ 0.631 to 25.9 µM) | – | – |
| COc1c(N2C[C@@H]3CCCN(Cc4cn(CCN5C(=O)/C(=N/NC(N)=O)c6cc(Br)ccc65)nn4)[C@@H]3C2)c(F)cc2c(=O)c(C(=O)O)cn(C3CC3)c12 | – | 0.1 to 0.78 µg/mL (≈ 0.126 to 0.985 µM) | – |
| NC(=O)N/N=C1/C(=O)N(CCCN2CCN(c3cc4c(cc3F)c(=O)c(C(=O)O)cn4C3CC3)CC2)c2ccccc21 | – | – | MIC [3]: 0.1 to 64 µg/mL (≈ 0.174 to 111 µM) |
| COc1c(N2CCNC(C)C2)c(F)cc2c(=O)c(C(=O)O)cn(C3CC3)c12 (centres undefined) [GATIFLOXACIN] | – | 1 µg/mL (≈ 2.66 µM) | – |
| NNC(=O)c1ccncc1 [ISONIAZID] | – | > 128 µg/mL | – |
| COc1c(N2C[C@@H]3CCCN[C@@H]3C2)c(F)cc2c(=O)c(C(=O)O)cn(C3CC3)c12 [MOXIFLOXACIN] | 0.1 to 1 µg/mL (≈ 0.249 to 2.49 µM) | 0.12 µg/mL (≈ 0.299 µM) | – |
| CO[C@H]1/C=C/O[C@@]2(C)Oc3c(C)c(O)c4c(O)c(c(/C=N/N5CCN(C)CC5)c(O)c4c3C2=O)NC(=O)/C(C)=C\C=C\[C@H](C)[C@H](O)[C@@H](C)[C@@H](O)[C@@H](C)[C@H](OC(C)=O)[C@@H]1C [RIFAMPIN] | – | 32 to 64 µg/mL (≈ 38.9 to 77.8 µM) | – |
